# Target: T1, human KCNK13 (Homo sapiens, UniProt Q9HB14)
# T1 construct: expressed in transfected cells
# T1 sequence (Q9HB14 1-408): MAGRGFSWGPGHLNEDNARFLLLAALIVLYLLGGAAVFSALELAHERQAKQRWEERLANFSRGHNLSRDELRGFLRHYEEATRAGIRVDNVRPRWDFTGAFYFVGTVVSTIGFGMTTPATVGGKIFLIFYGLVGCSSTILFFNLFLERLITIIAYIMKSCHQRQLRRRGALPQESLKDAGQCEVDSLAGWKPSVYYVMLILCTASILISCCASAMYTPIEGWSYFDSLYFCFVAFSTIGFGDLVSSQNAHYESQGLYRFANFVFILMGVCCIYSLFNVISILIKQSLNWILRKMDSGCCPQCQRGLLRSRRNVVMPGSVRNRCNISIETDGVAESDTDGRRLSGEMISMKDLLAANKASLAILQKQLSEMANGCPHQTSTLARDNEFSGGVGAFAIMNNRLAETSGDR
# Assay: KCNK13 antagonist activity, thallium flux FLIPR assay in HEK 293 cells stably expressing human KCNK13
# Format: cell-based
# Details: HEK 293 cells stably expressing human KCNK13, Tl+ sensitive dye, compound 15 min before thallium sulfate, ten point curves; read-out: hKCNK13 IC50
# Protocol: 4. Biological Efficacy of Compounds of the Invention
# KCNK13 antagonist activity was determined by measuring changes in intracellular Thallium (Tl^+) concentrations using a Tl^+ sensitive fluorescent dye. The changes in fluorescent signal were monitored by Fluorescent Imaging Plate Reader (FLIPR™) technology available from Molecular Devices, LLC, US. KCNK13 mediated increases in intracellular Tl^+ concentration were readily detected by addition of a thallium sulfate Stimulus. 24 hours prior to the assay, human embryonic kidney 293 cells (HEK 293 cells) stably expressing human KCNK13 were seeded in cell culture medium in PDL coated black, clear-bottom 384-well plates (commercially available from Corning Inc., 356663) and grown overnight at 37° C., […]. On the day of the assay, cell culture media was removed and cells were loaded with potassium dye (commercially sold by Molecular Devices, LLC, US, R8222) for 1 hour at room temperature in the dark. Test compounds (at 10 point half log concentration response curves from 100 µM) were added to cells for 15 minutes prior to the addition of thallium sulfate to all wells. The IC50 values were determined from ten point concentration response curves. Curves were generated using the average of two wells for each data point.
row,IC50 [µM],Compound
1,≤ 0.5,"COc1ncc(F)cc1C(=O)N(C)Cc1ccccc1C#N [Example 36, N-(2-cyanobenzyl)-5-fluoro-2-methoxy-N-methylnicotinamide]"
2,≤ 0.5,"COc1ncc(Cl)cc1C(=O)N(C)C1CCc2ccc(F)cc21 (single isomer, unassigned) [Example 20, 5-chloro-N-(6-fluoro-2,3-dihydro-1H-inden-1-yl)-2-methoxy-N-methylnicotinamide]"
3,≤ 1,"CN(Cc1cccc(F)c1)C(=O)c1cc(C2CCC2)cnc1OC(F)F [Example 97, 5-cyclobutyl-2-(difluoromethoxy)-N-(3-fluorobenzyl)-N-methylnicotinamide]"
4,≤ 1,"COc1ncc(F)cc1C(=O)N(C)Cc1c(F)cc(F)cc1C#N [Example 61, N-(2-cyano-4,6-difluorobenzyl)-5-fluoro-2-methoxy-N-methylnicotinamide]"
5,≤ 0.5,"COc1ncc(F)cc1C(=O)N(C)Cc1cccc(F)c1F [Example 38, N-(2,3-difluorobenzyl)-5-fluoro-2-methoxy-N-methylnicotinamide]"
6,≤ 0.2,"COc1ncc(Cl)cc1C(=O)N(C)Cc1c(F)cccc1F [Example 117, 5-chloro-N-(2,6-difluorobenzyl)-2-methoxy-N-methylnicotinamide]"
7,≤ 0.5,O=S(=O)(c1cc(F)cnc1OC(F)F)N1CCc2cc(F)cc(F)c2C1 [Example 116]
8,≤ 0.5,"COc1ncc(Cl)cc1C(=O)N(C)C(C)c1ccc(F)cc1C#N (single isomer, unassigned) [Example 67, 5-chloro-N-(1-(2-cyano-4-fluorophenyl)ethyl)-2-methoxy-N-methylnicotinamide]"
9,≤ 1,"COc1ncc(F)cc1C(=O)N(C)C1COc2cc(F)ccc21 (stereo not drawn) [Example 42, 5-fluoro-N-(6-fluoro-2,3-dihydrobenzofuran-3-yl)-2-methoxy-N-methylnicotinamide]"
10,≤ 0.2,"Cc1cc(F)cc(CN(C)C(=O)c2cc(Cl)cnc2OC(F)F)c1 [Example 76, 5-chloro-2-(difluoromethoxy)-N-(3-fluoro-5-methylbenzyl)-N-methylnicotinamide]"
11,≤ 0.5,"COc1ncc(Cl)cc1C(=O)N(C)C1COc2ccccc21 (single isomer, unassigned) [Example 27, 5-chloro-N-(2,3-dihydrobenzofuran-3-yl)-2-methoxy-N-methylnicotinamide]"
12,≤ 0.5,"COc1nccc(C)c1C(=O)N(C)Cc1ccc(F)cc1F [Example 73, N-(2,4-difluorobenzyl)-2-methoxy-N,4-dimethylnicotinamide]"
13,≤ 0.5,"CN(C(=O)c1cc(Cl)cnc1OC(F)F)C1COc2c(F)cccc21 (stereo not drawn) [Example 92, 5-chloro-2-(difluoromethoxy)-N-(7-fluoro-2,3-dihydrobenzofuran-3-yl)-N-methylnicotinamide]"
14,≤ 0.5,"COc1ncc(Cl)cc1C(=O)N(C)C1CCOc2c(F)cccc21 (single isomer, unassigned) [Example 29, 5-chloro-N-(8-fluorochroman-4-yl)-2-methoxy-N-methylnicotinamide]"
15,≤ 0.5,"CN(C(=O)c1cc(Cl)cnc1OC(F)F)C1CS(=O)(=O)c2ccccc21 (stereo not drawn) [Example 119, 5-chloro-2-(difluoromethoxy)-N-(1,1-dioxido-2,3-dihydrobenzo[b]thiophen-3-yl)-N-methylnicotinamide]"
16,≤ 1,"CCN(Cc1ccccc1)C(=O)c1cc(Cl)cnc1OC [Example 47, N-benzyl-5-chloro-N-ethyl-2-methoxynicotinamide]"
17,≤ 0.5,"COc1ncc(F)cc1C(=O)N(C)C1CCOc2ccccc21 (single isomer, unassigned) [Example 14, N-(chroman-4-yl)-5-fluoro-2-methoxy-N-methylnicotinamide]"
18,≤ 5,"COc1ncc(Cl)cc1C(=O)N(C)C(C)c1cc(F)ccc1C#N (single isomer, unassigned) [Example 60, 5-chloro-N-(1-(2-cyano-5-fluorophenyl)ethyl)-2-methoxy-N-methylnicotinamide]"

# Source: patent publication US20260167632A1, “NICOTINAMIDE DERIVATIVES FOR USE IN TREATING DISORDERS ASSOCIATED WITH KCNK13 ACTIVITY” (Cerevance, Inc., priority 2022, published 2026)
